Read-outs that look alike come from different tables or passages of the source.
What was measured:
LNCaP cells [1] = assay: XTT cell proliferation (cell viability) assay in LNCaP cells; assay type: cell-based; settings: Homo sapiens, mean±S.E.M., read-out: IC50 (anti-proliferative activity, XTT)
Experimental: (§1) Human metastatic prostate cancer cells, LNCaP, were obtained from ATCC (Manassas, Va., USA). Cells were grown in RPMI-1640 medium supplemented with 2mM glutamine, 10% FBS, 100 U/mL penicillin, and 100 μg/mL streptomycin. LNCaP cells were maintained in a humidified atmosphere of 5% CO2 at 37° C. in T-75 flasks and were subcultured when confluent. Experiments were conducted using cells with passage numbers ranging from 5-20.
The anti-proliferative effect of carvacrol was assessed in human metastatic prostate cancer cells, LNCaP, using the XTT cell proliferation assay. This assay is a colorimetric assay that detects cellular metabolic activities. In this assay, the second generation tetrazolium dye XTT (2,3-bis (2-methoxy-4-nitiro-5-sulfophenyl)-5-[(phenylamino)-carbonyl]-2H tetrazolium hydroxide), is reduced to a soluble, brightly orange colored formazan derivative. To improve the sensitivity of XTT assay, PMS (N-methyl dibenzopyrazine methyl sulfate), an intermediate electron carrier is used. This color change is accomplished by breaking apart the positively charged quaternary tetrazole ring. Mitochondrial oxidoreductases present in viable cells are thought to contribute substantially to the XTT response with their reductants being transferred to the plasma membrane.
LNCaP cells at the density of 10,000 cells/well were seeded into flat-bottom, 96-well microtiter plates (100 μL/well) and allowed to attach and grow for 24 hours, the cells were then treated with 0.1 μM, 1 μM, 10 μM, 100 μM, 1000 μM, and 3000 μM of carvacrol for 24, 48, and 96 hours. […] After incubation, an orange colored formazan product was formed and the absorbance was read at 475 nm using BioTek microplate reader. […] Cell viability of the drug-treated cells was calculated as a fraction of solvent control and the anti-proliferative activity of carvacrol was expressed in terms in IC50 valuesIC50 values of carvacrol were calculated using GraphPad Prism 4 (GraphPad Software Inc., Calif., USA), and are expressed as the means of ±S.E.M> of n≧4 experiments, with triplicate determinations in each experiment. […]

LNCaP cells [2] = assay: Morphological analysis of LNCaP cells; assay type: cell-based, Human; settings: 10 μM and 1000 μM, 48 hours, dose-dependent
Experimental: as §1
Prominent features of morphological changes occurring in a cell, such as cell shrinkage, rounding of cells, membrane blebbing, and formation of apoptotic bodies indicate induction of apoptosis or programmed cell death.
In order to identify the morphological changes in LNCaP cells after treatment with carvacrol, 2×10^6 cells/well were seeded in flat-bottom, 6-well microtiter plates, allowed to grow for 24 hours, treated with 10 μM and 1000 μM of carvacrol, and incubated for a further 48 hours at 37° C. Post incubation, cells were washed twice with PBS, and microscopic photographs of morphological changes of the cells were captured using a fluorescent microscope, Axiovert 200M (Carl Zeiss MicroImaging Inc, NY, USA). 1.15% EtOH was used in solvent control.

[3] = test system: cytochrome c release in LNCaP cells; assay: Western blot analysis of cytochrome c release in LNCaP cells; assay type: cell-based, Human; settings: 10 μM and 1000 μM, 48 h
Experimental: as §1
(§2) Western blotting is a widely used analytical technique for detection of specific proteins separated from one another, according to their size, by gel electrophoresis. Application of an electric current induces proteins on the gel to move on to the membrane (nitrocellulose or PVDF) placed next to it. Proteins on the gel get transferred on to the membrane which is subsequently stained with the antibody. Once detected, the target protein will be visualized as a band on a blotting membrane, X-ray film, or an imaging system. […]
(§3) After maintaining constant agitation at 4° C. for 30 minutes, lysates were collected in microcentrifuge tubes and centrifuged at 12,000 rpm at 4° C. for 20 minutes. […] Protein concentration was determined using the Pierce® BCA protein assay kit. […] Western blot images are representative of at least 3 independent experiments, while quantification data represent mean±S.E.M. of n>3 experiments.

[4] = test system: PARP cleavage in LNCaP cells; assay: Western blot analysis of PARP cleavage in LNCaP cells; assay type: cell-based, Human; settings: 48 h treatment
Experimental: as §1, §2, §3

Cc1ccc(C(C)C)cc1O [Carvacrol]
IC50 (LNCaP cells [1]; 24 hours treatment): 1670 ± 179 µM | IC50 (LNCaP cells [1]; 48 hours treatment): 269 ± 58 µM | IC50 (LNCaP cells [1]; 96 hours treatment): 13.7 ± 4.42 µM | morphological changes (features of apoptosis) (LNCaP cells [2]): typical features of apoptosis like rounding of cells, membrane blebbing, cell shrinkage and formation of apoptotic bodies were observed | cytochrome c release (Western blot, densitometry vs solvent control) [3]: dose-dependent increase in cytochrome c release | cleavage of PARP (Western blot) [4]: demonstrated cleavage of PARP

Reference: patent US20140100290A1, “Method of treating a prostate condition” (priority 2012, published 2014)
